Test results from ChEMBL document CHEMBL1201862, “PubChem BioAssay data set” (2004).
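How tested: cells in 96-well plates exposed to compound for 48 hours at five concentrations. GI50 is the concentration that inhibits growth by half.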 The source made the active and inactive calls. Rule as the data show it: active = GI50 up to about 1.1 µM and inactive = higher.

Columns and labels:
Experiment in all cases: NCI-60 cell line screen, 48 h
SK-MEL-2 = tested on: SK-MEL-2
SNB-19 = tested on: SNB-19
UACC-62 = tested on: UACC-62
TK-10 = tested on: TK-10
RPMI-8226 = tested on: RPMI-8226
HCT-116 = tested on: HCT-116
MOLT-4 = tested on: MOLT-4
SF-539 = tested on: SF-539
IGROV-1 = tested on: IGROV-1
HOP-62 = tested on: HOP-62
KM12 = tested on: KM12
CAKI-1 = tested on: CAKI-1
SK-OV-3 = tested on: SK-OV-3
SF-295 = tested on: SF-295
HCC 2998 = tested on: HCC 2998
UO-31 = tested on: UO-31
NCI-H23 = tested on: NCI-H23

Measured: GI50

S=C(Nc1ccccc1)Nc1ccccc1SC(/C=C/NNC1=NN=C(c2ccccc2)C(c2ccccc2)N1)c1ccccc1 (stereo not drawn)
inactive: SK-MEL-2 > 100 µM | SNB-19 > 100 µM | UACC-62 > 100 µM | TK-10 > 100 µM | RPMI-8226 59 µM | HCT-116 > 100 µM | MOLT-4 13.4 µM | SF-539 83.9 µM | IGROV-1 > 100 µM | HOP-62 16.7 µM | KM12 > 100 µM | CAKI-1 > 100 µM | SK-OV-3 > 100 µM | SF-295 69.3 µM | HCC 2998 26.4 µM

CCc1cc(C)cc2[n+]1CC=C2C.[O-][Cl+3]([O-])([O-])[O-]
inactive: SK-MEL-2 > 100 µM | SNB-19 > 100 µM | UO-31 > 100 µM | TK-10 > 100 µM | NCI-H23 66.1 µM | SF-539 > 100 µM | HOP-62 > 100 µM | KM12 > 100 µM | CAKI-1 65.9 µM | SF-295 > 100 µM | HCC 2998 > 100 µM

O=C(CO)C1CC2C=CC1C2 (stereo not drawn)
inactive: SK-MEL-2 > 100 µM | SNB-19 > 100 µM | UO-31 > 100 µM | UACC-62 > 100 µM | TK-10 > 100 µM | NCI-H23 > 100 µM | RPMI-8226 > 100 µM | HCT-116 > 100 µM | MOLT-4 > 100 µM | SF-539 > 100 µM | IGROV-1 > 100 µM | HOP-62 > 100 µM | KM12 > 100 µM | CAKI-1 > 100 µM | SK-OV-3 > 100 µM | SF-295 > 100 µM

Cc1c(C(=O)/C=C/c2ccccc2O)c(=O)n(-c2ccccc2)n1C
inactive: SK-MEL-2 18 µM | SNB-19 43.8 µM | UO-31 > 10 µM | UACC-62 29 µM | TK-10 90.6 µM | NCI-H23 > 10 µM | HCT-116 16.5 µM | MOLT-4 19.3 µM | SF-539 19.8 µM | IGROV-1 42.1 µM | KM12 > 10 µM | CAKI-1 21.8 µM | SK-OV-3 36.1 µM | SF-295 14.6 µM | HCC 2998 16 µM

Cc1nc(C(=O)O)c2ccccc2n1
inactive: SK-MEL-2 > 100 µM | SNB-19 > 100 µM | UO-31 > 100 µM | UACC-62 > 100 µM | TK-10 > 100 µM | NCI-H23 > 100 µM | RPMI-8226 > 100 µM | HCT-116 > 100 µM | MOLT-4 > 100 µM | SF-539 > 100 µM | IGROV-1 > 100 µM | KM12 > 100 µM | CAKI-1 > 100 µM | SK-OV-3 > 100 µM | SF-295 > 100 µM | HCC 2998 > 100 µM

COc1c(O)c2c3c(cc(C)cc3c1C(C)C)OC2
inactive: SK-MEL-2 > 100 µM | SNB-19 > 100 µM | UO-31 > 100 µM | UACC-62 > 100 µM | TK-10 > 100 µM | NCI-H23 > 100 µM | RPMI-8226 > 100 µM | HCT-116 > 100 µM | MOLT-4 > 100 µM | SF-539 > 100 µM | IGROV-1 > 100 µM | KM12 > 100 µM | SK-OV-3 > 100 µM | SF-295 > 100 µM | HCC 2998 > 100 µM

O=C1[C@H](Cl)[C@H]2c3cc4ccccc4nc3Oc3ccccc3N12
inactive: SK-MEL-2 36.5 µM | SNB-19 46.8 µM | UO-31 14.9 µM | UACC-62 18.3 µM | TK-10 > 100 µM | NCI-H23 35.1 µM | RPMI-8226 22.6 µM | HCT-116 17.2 µM | MOLT-4 27.7 µM | IGROV-1 32.7 µM | HOP-62 35.4 µM | KM12 33.3 µM | CAKI-1 38.7 µM | SK-OV-3 45.5 µM | SF-295 21.8 µM | HCC 2998 39.4 µM

COc1cc2c(cc1OC)[Se]c1cc(OC)c(OC)cc1[Se]2
inactive: SK-MEL-2 > 10 µM | SNB-19 > 10 µM | UO-31 > 10 µM | UACC-62 > 10 µM | TK-10 > 10 µM | NCI-H23 > 10 µM | RPMI-8226 > 10 µM | HCT-116 > 10 µM | MOLT-4 > 100 µM | SF-539 90.8 µM | IGROV-1 > 10 µM | HOP-62 > 10 µM | KM12 6.15 µM | CAKI-1 > 10 µM | SK-OV-3 > 10 µM | SF-295 18.3 µM

CCN(CC)/C(=C\Cl)Nc1ccccn1.[O-][Cl+3]([O-])([O-])O
inactive: SK-MEL-2 > 100 µM | SNB-19 > 100 µM | UO-31 > 100 µM | UACC-62 > 100 µM | TK-10 > 100 µM | NCI-H23 > 100 µM | RPMI-8226 > 100 µM | HCT-116 > 100 µM | MOLT-4 > 100 µM | SF-539 > 100 µM | IGROV-1 > 100 µM | HOP-62 > 100 µM | KM12 > 100 µM | CAKI-1 > 100 µM | SK-OV-3 > 100 µM | SF-295 > 100 µM | HCC 2998 > 100 µM

c1ccc2c(c1)OCCOCCOc1ccccc1OCCO2
inactive: SK-MEL-2 90.4 µM | SNB-19 64.6 µM | UO-31 30 µM | UACC-62 51.2 µM | TK-10 45.6 µM | NCI-H23 > 100 µM | RPMI-8226 22.3 µM | HCT-116 40.5 µM | MOLT-4 47.5 µM | SF-539 > 100 µM | IGROV-1 71.8 µM | HOP-62 67.1 µM | KM12 35.2 µM | CAKI-1 78 µM | SK-OV-3 > 100 µM | SF-295 62.4 µM

O=C(O)c1c(-c2cccc3ccccc23)sc(-c2cccc3ccccc23)c1C(=O)O
inactive: SK-MEL-2 35.9 µM | SNB-19 > 100 µM | UO-31 88.3 µM | UACC-62 46.1 µM | TK-10 > 100 µM | NCI-H23 > 100 µM | RPMI-8226 58.1 µM | HCT-116 > 100 µM | MOLT-4 27.2 µM | SF-539 > 100 µM | IGROV-1 > 100 µM | KM12 36.6 µM | SK-OV-3 > 100 µM | SF-295 > 100 µM | HCC 2998 > 100 µM

O=C(CSc1nnc[nH]1)C[P+](c1ccccc1)(c1ccccc1)c1ccccc1
inactive: SK-MEL-2 > 100 µM | SNB-19 > 100 µM | UO-31 > 100 µM | UACC-62 99.1 µM | TK-10 > 100 µM | NCI-H23 > 100 µM | RPMI-8226 > 10 µM | MOLT-4 40.2 µM | SF-539 > 100 µM | IGROV-1 > 100 µM | HOP-62 > 100 µM | KM12 > 100 µM | CAKI-1 54.6 µM | SK-OV-3 > 100 µM | SF-295 > 100 µM | HCC 2998 > 100 µM

COC(=O)[C@@]12C(=O)C=CC(=O)C1C1C(=CC2C)OC2OC3(CCCCC3)OC21 (stereo partly drawn)
inactive: SK-MEL-2 19 µM | SNB-19 17.7 µM | UO-31 16.8 µM | UACC-62 15.2 µM | TK-10 17.3 µM | NCI-H23 19.4 µM | RPMI-8226 4.89 µM | HCT-116 15.9 µM | MOLT-4 6.11 µM | IGROV-1 18.1 µM | HOP-62 19.9 µM | KM12 20 µM | CAKI-1 18.2 µM | SK-OV-3 18.6 µM | SF-295 18.9 µM | HCC 2998 14.5 µM

CC1=C(O)C(=O)C2C(=O)C1C1Cc3ccccc3C21 (stereo not drawn)
inactive: SK-MEL-2 > 100 µM | SNB-19 > 100 µM | UO-31 > 100 µM | UACC-62 > 100 µM | TK-10 > 100 µM | NCI-H23 > 100 µM | RPMI-8226 > 100 µM | MOLT-4 > 100 µM | SF-539 > 100 µM | IGROV-1 > 100 µM | HOP-62 > 100 µM | KM12 > 100 µM | CAKI-1 > 100 µM | SK-OV-3 > 100 µM | SF-295 > 100 µM | HCC 2998 > 100 µM

O=[N+]([O-])[C@@H]1C2C=CC(C2)[C@H]1Cl (stereo partly drawn)
inactive: SK-MEL-2 > 100 µM | SNB-19 > 100 µM | UO-31 > 100 µM | UACC-62 > 100 µM | TK-10 > 100 µM | NCI-H23 > 100 µM | RPMI-8226 > 100 µM | HCT-116 > 100 µM | MOLT-4 > 100 µM | SF-539 > 100 µM | IGROV-1 > 100 µM | HOP-62 > 100 µM | KM12 > 100 µM | CAKI-1 > 100 µM | SK-OV-3 > 100 µM | SF-295 > 100 µM

COc1nc(NC2OCC(OC(C)=O)C(OC(C)=O)C2OC(C)=O)c(-c2csc(N)n2)c(=O)n1C (stereo not drawn)
inactive: SK-MEL-2 > 100 µM | SNB-19 > 100 µM | UO-31 > 100 µM | UACC-62 > 100 µM | TK-10 > 100 µM | NCI-H23 > 100 µM | RPMI-8226 > 100 µM | HCT-116 > 100 µM | MOLT-4 > 100 µM | SF-539 > 100 µM | IGROV-1 > 100 µM | HOP-62 > 100 µM | KM12 > 100 µM | CAKI-1 > 100 µM | SK-OV-3 > 100 µM | SF-295 > 100 µM

CC1=CC(=O)c2c(C=O)c(O)c(O)c(C(C)C)c2C1=O
inactive: SK-MEL-2 23.3 µM | SNB-19 39.5 µM | UO-31 22 µM | UACC-62 20.3 µM | NCI-H23 28.8 µM | RPMI-8226 19.8 µM | HCT-116 18.3 µM | MOLT-4 21.2 µM | SF-539 25.6 µM | IGROV-1 22.5 µM | HOP-62 32.5 µM | CAKI-1 21.2 µM | SK-OV-3 34.5 µM | HCC 2998 29.3 µM

Cc1cccc(C)c1NC(=O)CCCC(=O)C(C#N)c1ccccc1 (stereo not drawn)
inactive: SK-MEL-2 > 100 µM | SNB-19 > 10 µM | UO-31 > 100 µM | UACC-62 > 10 µM | NCI-H23 > 100 µM | RPMI-8226 > 100 µM | HCT-116 > 100 µM | MOLT-4 > 100 µM | SF-539 > 10 µM | IGROV-1 > 100 µM | HOP-62 > 10 µM | KM12 > 10 µM | CAKI-1 > 100 µM | SK-OV-3 91 µM | SF-295 > 10 µM | HCC 2998 > 10 µM
